Laboratory results: ChEMBL document CHEMBL3639058, “Glycine compound” (2014)

Legend:
[1] = biological target: T1, Amine oxidase [copper-containing] 3 (Rattus norvegicus, UniProt O08590); assay: (§1) Inhibition Assay: A rat VAP-enzyme 1 (SSAO) activity was measured by a radiochemistry-enzymatic assay using 14C-benzylamine as an artificial substrate. An enzyme suspension prepared from CHO (Chinese Hamster Ovary) cells stably expressing a rat VAP-enzyme 1 (SSAO) was preincubated with the compound of the present invention in a 96-well microplate at room temperature for 30 minutes. Subsequently, the enzyme suspension was incubated with 14C-benzylamine (a final concentration of 1×10−5 mol/L) to a final volume of […] at 37° C. for 1 hour. The enzymatic reaction was stopped by the addition of 2 mol/L (50 μL) of citric acid. The oxidation products were extracted directly in a 200-μL toluene scintillator, and the radioactivity was measured with a scintillation spectrometer.
T1 sequence (O08590 whole entry): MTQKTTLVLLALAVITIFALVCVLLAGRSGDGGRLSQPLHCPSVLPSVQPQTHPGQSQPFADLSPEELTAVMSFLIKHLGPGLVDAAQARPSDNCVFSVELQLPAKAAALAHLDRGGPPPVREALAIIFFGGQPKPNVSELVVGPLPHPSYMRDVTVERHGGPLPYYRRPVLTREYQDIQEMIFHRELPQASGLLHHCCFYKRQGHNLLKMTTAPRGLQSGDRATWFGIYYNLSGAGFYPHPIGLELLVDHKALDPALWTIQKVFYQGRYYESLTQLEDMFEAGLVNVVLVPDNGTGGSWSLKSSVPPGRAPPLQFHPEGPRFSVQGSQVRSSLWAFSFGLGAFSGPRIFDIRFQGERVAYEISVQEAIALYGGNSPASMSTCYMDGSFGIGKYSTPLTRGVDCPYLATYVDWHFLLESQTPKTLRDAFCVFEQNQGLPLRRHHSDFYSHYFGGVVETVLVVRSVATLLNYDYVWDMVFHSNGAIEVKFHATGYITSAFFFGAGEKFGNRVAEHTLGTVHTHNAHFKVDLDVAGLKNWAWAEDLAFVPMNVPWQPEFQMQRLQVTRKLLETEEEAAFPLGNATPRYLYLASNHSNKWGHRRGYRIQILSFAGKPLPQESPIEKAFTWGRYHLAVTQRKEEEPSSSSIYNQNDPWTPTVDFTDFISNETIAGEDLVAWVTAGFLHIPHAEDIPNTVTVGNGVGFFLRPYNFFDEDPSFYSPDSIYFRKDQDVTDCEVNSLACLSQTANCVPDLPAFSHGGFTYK

[2] = biological target: T2, Amine oxidase [copper-containing] 3 (Homo sapiens, UniProt Q16853); assay: as §1, with “human VAP-1 enzyme” for “rat VAP-enzyme 1”
T2 sequence (Q16853 whole entry): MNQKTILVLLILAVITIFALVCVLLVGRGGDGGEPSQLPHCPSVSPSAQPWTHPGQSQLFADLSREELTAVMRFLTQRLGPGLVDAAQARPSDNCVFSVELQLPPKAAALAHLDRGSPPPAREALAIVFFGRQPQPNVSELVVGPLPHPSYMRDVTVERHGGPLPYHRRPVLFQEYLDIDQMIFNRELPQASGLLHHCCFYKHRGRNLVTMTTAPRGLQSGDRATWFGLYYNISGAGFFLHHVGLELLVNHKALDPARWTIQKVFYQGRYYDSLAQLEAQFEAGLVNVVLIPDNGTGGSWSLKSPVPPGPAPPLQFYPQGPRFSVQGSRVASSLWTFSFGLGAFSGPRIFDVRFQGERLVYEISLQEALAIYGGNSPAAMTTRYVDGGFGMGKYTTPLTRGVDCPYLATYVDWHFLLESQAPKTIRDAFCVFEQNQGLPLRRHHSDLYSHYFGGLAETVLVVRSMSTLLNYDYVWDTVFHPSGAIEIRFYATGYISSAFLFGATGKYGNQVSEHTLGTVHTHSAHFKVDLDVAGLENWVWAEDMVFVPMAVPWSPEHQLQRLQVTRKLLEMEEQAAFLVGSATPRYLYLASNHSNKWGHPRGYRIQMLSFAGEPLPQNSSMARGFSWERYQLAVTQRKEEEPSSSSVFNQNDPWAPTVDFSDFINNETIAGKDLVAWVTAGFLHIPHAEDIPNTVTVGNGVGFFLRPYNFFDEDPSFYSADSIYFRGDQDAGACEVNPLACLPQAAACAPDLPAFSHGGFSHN

| IC50 [1] [nM] | IC50 [2] [nM] | SMILES |
| --- | --- | --- |
| 5.2 | 9.4 | Cc1cc(CCC(=O)O)cnc1N1CCN(c2ncc(-c3cccc(CN(C)C(=O)CN)c3)cn2)CC1 |
| 61 | – | C[C@@H]1CN(c2ncc(-c3cccc(CN(C)C(=O)CN)c3)cn2)C[C@H](C)O1 |
